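These data come from cells grown in 96-well plates and exposed to compound for 48 hours at five concentrations. At the GI50, growth is halved.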 The source made the active and inactive calls. Cut-off read from the data, not from the text of the source: active = GI50 up to about 1.1 µM and inactive = higher.
Legend:
Experiment in all cases: NCI anticancer screen, dose series, 48 h
EKVX = system: EKVX
TK-10 = system: TK-10
SF-268 = system: SF-268
IGROV-1 = system: IGROV-1
UO-31 = system: UO-31
HCC 2998 = system: HCC 2998
SK-OV-3 = system: SK-OV-3
SK-MEL-5 = system: SK-MEL-5
HT-29 = system: HT-29
SK-MEL-28 = system: SK-MEL-28
UACC-257 = system: UACC-257
M14 = system: M14
CAKI-1 = system: CAKI-1
OVCAR-5 = system: OVCAR-5
A498 = system: A498
SW-620 = system: SW-620
SR = system: SR

SMILES	GI50 (EKVX)	GI50 (TK-10)	GI50 (SF-268)	GI50 (IGROV-1)	GI50 (UO-31)	GI50 (HCC 2998)	GI50 (SK-OV-3)	GI50 (SK-MEL-5)	GI50 (HT-29)	GI50 (SK-MEL-28)	GI50 (UACC-257)	GI50 (M14)	GI50 (CAKI-1)	GI50 (OVCAR-5)	GI50 (A498)	GI50 (SW-620)	GI50 (SR)
CCCN(CCC)c1c([N+](=O)[O-])cc(C(=O)N(CCO)CCO)cc1[N+](=O)[O-]	57.4 µM (inactive)	> 100 µM (inactive)	> 100 µM (inactive)	> 100 µM (inactive)	> 100 µM (inactive)	> 100 µM (inactive)	> 100 µM (inactive)	> 100 µM (inactive)	> 100 µM (inactive)	> 100 µM (inactive)	> 100 µM (inactive)	> 100 µM (inactive)	> 100 µM (inactive)	> 100 µM (inactive)	–	–	–
CCOc1ccc(NC(=O)/C(=C/c2ccccc2)C(C)=O)cc1	17.8 µM (inactive)	17.3 µM (inactive)	11.3 µM (inactive)	10.2 µM (inactive)	9.66 µM (inactive)	13.3 µM (inactive)	24.6 µM (inactive)	12.2 µM (inactive)	10.3 µM (inactive)	12.9 µM (inactive)	12.2 µM (inactive)	12.3 µM (inactive)	11.7 µM (inactive)	17.6 µM (inactive)	18.1 µM (inactive)	13.2 µM (inactive)	–
O=C(Cc1ccc(F)cc1)NC1=C(Cl)C(=O)c2ccccc2C1=O	3.65 µM (inactive)	6.9 µM (inactive)	4.05 µM (inactive)	2.61 µM (inactive)	2.51 µM (inactive)	4.22 µM (inactive)	4.94 µM (inactive)	2.92 µM (inactive)	17.3 µM (inactive)	4.05 µM (inactive)	2.48 µM (inactive)	3.16 µM (inactive)	4.95 µM (inactive)	3.85 µM (inactive)	–	2.24 µM (inactive)	0.481 µM (active)
COc1ccc2nc(NC(=O)C(=O)CC(=O)c3ccc([N+](=O)[O-])cc3)sc2c1	> 100 µM (inactive)	–	> 100 µM (inactive)	> 100 µM (inactive)	50.7 µM (inactive)	> 100 µM (inactive)	> 100 µM (inactive)	> 100 µM (inactive)	> 100 µM (inactive)	> 100 µM (inactive)	> 100 µM (inactive)	> 100 µM (inactive)	> 100 µM (inactive)	> 100 µM (inactive)	> 100 µM (inactive)	> 100 µM (inactive)	–
Cc1cc(C)c(-n2c(-c3ccccc3)cs/c2=N\N=C2C=C(C(C)(C)C)C(=O)C(C(C)(C)C)=C2)c(C)c1	91.4 µM (inactive)	> 100 µM (inactive)	> 100 µM (inactive)	> 100 µM (inactive)	–	> 100 µM (inactive)	> 100 µM (inactive)	94 µM (inactive)	> 100 µM (inactive)	> 100 µM (inactive)	> 100 µM (inactive)	> 100 µM (inactive)	> 100 µM (inactive)	> 100 µM (inactive)	–	> 100 µM (inactive)	> 100 µM (inactive)
NNC(=O)CC(=O)Nc1ccccc1F	> 100 µM (inactive)	–	> 100 µM (inactive)	> 100 µM (inactive)	> 100 µM (inactive)	> 100 µM (inactive)	> 100 µM (inactive)	> 100 µM (inactive)	> 100 µM (inactive)	> 100 µM (inactive)	> 100 µM (inactive)	> 100 µM (inactive)	> 100 µM (inactive)	> 100 µM (inactive)	> 100 µM (inactive)	> 100 µM (inactive)	–

Reference: ChEMBL document CHEMBL1201862, “PubChem BioAssay data set” (2004)
